Patent US20240307351A1, “AGENT FOR ANTI-AGING OR FOR CELLULAR REJUVENATION” (TOHOKU UNIVERSITY, priority 2022, published 2024)

Tests used:
SIRTI protein = experiment: Amount of SIRT1 protein in RH30 cells by Western blotting; type: cell-based, human; settings: 30 μM, 24 hours, compared with Control group (DMSO)
Experimental: RH30 cells (human rhabdomyosarcoma cell line; gli gene expression+, N-myc gene expression+) at 1×10^6 cell/dish were seeded and cultured in a dish containing 10 mL of a culture solution (low-glucose-containing DMEM medium (glucose concentration of 1.0 g/dL) to which 10 wt. % of FBS was added). One day later, Compound #5 was added to have a concentration of 30 μM, and the mixture was cultured for 24 hours ([Compound #5 addition group]). Compound #9, Compound #13, Compound #21, Compound #30, or Compound #35 as the present compound was added in place of Compound #5, and the mixture was cultured in the same manner, respectively, as [Compound #9 addition group], [Compound #13 addition group], [Compound #21 addition group], [Compound #30 addition group], and […].
On the other hand, as a control, DMSO (dimethyl sulfoxide) was added to have a concentration of 0.2 wt. %, and the mixture was cultured for 24 hours ([Control group]).
After completion of culture, the cells were recovered, disrupted by a typical method, and the amount of each of the proteins (SIRTI proteins, etc.) in the cells was detected by Western blotting. Further, the results of quantification of each band in the detection results of the Western blotting in FIG. 6 through normalization with the band of β-actin as a loading control are shown in FIG. 7.

[1] = Liver function markers in blood of C57BL6 mice; type: in vivo, mouse; settings: C57BL6 mice (8 weeks old), oral, 50 or 150 mg/kg/day, 7 days, vs DMSO corn oil
Experimental: Compound #4 of DMSO corn oil was orally administered to C57BL6 mice (8 weeks old) at a dose of 50 mg/kg/day per kg of mouse weight for 7 days ([Group L]).
In addition, Compound #4 of DMSO corn oil was orally administered to C57BL6 mice (8 weeks old) at a dose of 150 mg/kg/day per kg of mouse weight for 7 days ([Group H]).
Further, DMSO corn oil was orally administered to C57BL6 mice (8 weeks old) for 7 days ([Control group]).

With `CC(C)(C)OC(=O)NCCCCCCC(C)(C(=O)O)c1c[nH]c2ccccc12` (centres unmarked) [Compound #13] the “amount of SIRTI protein in cells” value (SIRTI protein) was “increased”.

In the case of `CC(=O)N1CCC(CC(C(=O)O)c2c[nH]c3ccccc23)CC1` (centres unmarked) [Compound #9], the “amount of SIRTI protein in cells” value (SIRTI protein) is reported as “increased”.

With `CCCCCCn1cc(CC(=O)O)c2ccccc21` [Compound #30] the “amount of SIRTI protein in cells” value (SIRTI protein) was “increased”.

With `O=C(CC(C(=O)O)c1c[nH]c2ccccc12)c1ccc(F)cc1` (centres unmarked) [Compound #4] the GOT in blood [1] was “decreased” and the GPT in blood [1] was “decreased”.
